Results on one compound are retold here after ChEMBL document CHEMBL3639029, “Pyrrolopyrimidine compounds as inhibitors of CDK4/6” (2015).

Test [1] addresses Cyclin-dependent kinase 4 (Homo sapiens, UniProt P11802). Nature of the test: Biological Assay: An assay for monitoring CDK4/cyclin D1-catalyzed phosphorylation of pRb at the Ser780 site was performed using TR-FRET in a 384-well format, and was used for IC50 determination and kinetic analysis. The reaction was carried out in a 30 uL volume containing 0.3 nM CDK4/cyclin D1, 150 nM biotin-pRb (773-924), 3 uM ATP, and 1.3% DMSO (or compound in DMSO) in the assay buffer (50 mM HEPES-Na, pH 7.5; 5 mM MgCl2, 1 mM DTT, 0.02% Tween-20, and 0.05% BSA). 3 uM ATP was added last to initiate the reaction. The reaction was quenched with 10 uL of 240 mM EDTA-Na (pH 8.0) after 60 min incubation at 22 C. The signal was developed by the addition of 40 uL detection solution containing 40 nM SA-APC, 143 ng/mL anti-phospho-pRb (S780) antibody, and 1 nM Eu-W1024 anti-rabbit IgG antibody in the detection buffer (50 mM HEPES-Na, pH 7.5, 60 mM EDTA-Na, pH 8.0, 0.05% BSA, and 0.1% Triton X-100). After 60 min incubation in the dark, the plate was read on Envision. In general terms: Time-resolved FRET reads energy transfer from a long-lived donor to a nearby acceptor.

The target of test [2] is Cyclin-dependent kinase 1 (Homo sapiens, UniProt P06493). Nature of the test: IMAP-FP (Molecular Devices Trade Mark Technology) Endpoint Assay: A 384-well microtiter IMAP-FP (Molecular Devices Trade Mark Technology) endpoint assay was used for CDK1/cyclin B kinase activity measurements. The same assay was used for IC50 determination of small molecule inhibitors. In general, the kinase reactions were carried out in 20 uL volumes in the reaction solution, which is composed of 2 uL compound (in 20% DMSO), 8 uL CDK1/cyclin B in the 1x Reaction Buffer (Molecular Devices, Cat. No. R8139), 10 uL substrate mixture of Tamra Histone-H1 peptide (Molecular Devices, Cat. No. R7384) and ATP (Amersham Pharmacia, Cat. No. 27-2056-01) in the 1x Reaction Buffer with 1 mM DTT freshly added. The final reaction mixture contains compound (inhibitor) with the concentration varying from 0.005-10 uM, 2% DMSO, 0.25 nM CDK1/cyclin B, 100 nM Tamra Histone-H1 peptide, and 20 uM ATP.All reactions were run at room temperature in black 384-well flat-bottom Costar plates (Corning, Cat. No. 3710) for 120 min then were quenched.
Cyclin-dependent kinase 1, sequence (P06493 whole entry): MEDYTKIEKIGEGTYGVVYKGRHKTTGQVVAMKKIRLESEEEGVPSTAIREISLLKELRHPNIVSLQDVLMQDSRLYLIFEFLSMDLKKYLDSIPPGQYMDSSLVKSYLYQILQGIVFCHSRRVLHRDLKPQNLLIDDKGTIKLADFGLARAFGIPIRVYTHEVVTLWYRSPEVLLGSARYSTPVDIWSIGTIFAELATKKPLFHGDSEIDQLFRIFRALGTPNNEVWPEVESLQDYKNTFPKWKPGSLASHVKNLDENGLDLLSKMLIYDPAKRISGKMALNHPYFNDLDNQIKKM

Cyclin-dependent kinase 4, sequence (P11802 whole entry): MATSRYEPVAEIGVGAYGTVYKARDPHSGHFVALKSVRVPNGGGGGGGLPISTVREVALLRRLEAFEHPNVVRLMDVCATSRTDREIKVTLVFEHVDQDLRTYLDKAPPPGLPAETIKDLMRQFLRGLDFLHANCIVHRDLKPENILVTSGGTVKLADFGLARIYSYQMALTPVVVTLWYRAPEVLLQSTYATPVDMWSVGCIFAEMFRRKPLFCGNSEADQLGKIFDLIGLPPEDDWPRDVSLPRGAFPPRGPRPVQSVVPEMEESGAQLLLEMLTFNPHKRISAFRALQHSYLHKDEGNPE

Regarding `CN(C)C(=O)c1cc2cnc(Nc3ccc(N4CC5CCC(CC4=O)N5)cn3)nc2n1-c1ccc(C(C)(C)C#N)cc1` (configuration not stated), the IC50 was 5 nM in test [1] and more than 15000 nM in test [2].

Broadly, the IC50 is the concentration at which inhibition is half-maximal.
